Several values for one entry are separate records, joined by “and”; a condition that tells them apart may be missing. Identical values can stand only once. Entries after “also recorded” stand apart in the source; their conditions may differ. Like-named read-outs stand apart in the source and are kept apart here.
Columns and labels:
[1] = biological target: T1, recombinant human MAO-A (Homo sapiens, UniProt P21397); test: MAO-A enzyme inhibition (kynuramine substrate, 316 nm); conditions: for remaining activity at 10 µM: read-out: Residual Activity at 10 µM (%) MAO-A
T1 sequence (P21397 1-527): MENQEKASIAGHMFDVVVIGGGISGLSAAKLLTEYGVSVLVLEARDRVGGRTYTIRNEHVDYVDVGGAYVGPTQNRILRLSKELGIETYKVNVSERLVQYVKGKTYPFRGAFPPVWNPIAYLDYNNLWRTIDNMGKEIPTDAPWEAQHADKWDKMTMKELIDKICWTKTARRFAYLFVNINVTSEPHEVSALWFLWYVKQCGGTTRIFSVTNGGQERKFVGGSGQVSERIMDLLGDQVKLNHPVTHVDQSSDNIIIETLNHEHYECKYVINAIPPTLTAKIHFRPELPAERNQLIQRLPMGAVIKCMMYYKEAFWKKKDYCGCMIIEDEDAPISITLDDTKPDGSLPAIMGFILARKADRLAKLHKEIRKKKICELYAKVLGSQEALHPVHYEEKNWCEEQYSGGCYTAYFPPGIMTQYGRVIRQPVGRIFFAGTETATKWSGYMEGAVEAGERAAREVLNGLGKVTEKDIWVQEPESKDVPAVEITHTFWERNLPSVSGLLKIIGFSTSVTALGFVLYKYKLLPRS
Experimental: (§5) MAO activity assays were performed using recombinant human MAO-A or MAO-B.
(§6) IC50 values were determined by measuring residual enzyme activities.

[2] = biological target: T2, MAO-B (Homo sapiens, UniProt P27338); test: MAO-B enzyme inhibition (benzylamine substrate, 250 nm); conditions: for SI (hMAO-B selectivity index): IC50(hMAO-A) divided by IC50(hMAO-B); for remaining activity at 10 µM: read-out: Residual Activity at 10 µM (%) MAO-B; for Times more potent than pargyline (MAO-B) / Times more potent than the reference drug lazabemide (MAO-B): ratio of MAO-B IC50 values
T2 sequence (P27338 1-520): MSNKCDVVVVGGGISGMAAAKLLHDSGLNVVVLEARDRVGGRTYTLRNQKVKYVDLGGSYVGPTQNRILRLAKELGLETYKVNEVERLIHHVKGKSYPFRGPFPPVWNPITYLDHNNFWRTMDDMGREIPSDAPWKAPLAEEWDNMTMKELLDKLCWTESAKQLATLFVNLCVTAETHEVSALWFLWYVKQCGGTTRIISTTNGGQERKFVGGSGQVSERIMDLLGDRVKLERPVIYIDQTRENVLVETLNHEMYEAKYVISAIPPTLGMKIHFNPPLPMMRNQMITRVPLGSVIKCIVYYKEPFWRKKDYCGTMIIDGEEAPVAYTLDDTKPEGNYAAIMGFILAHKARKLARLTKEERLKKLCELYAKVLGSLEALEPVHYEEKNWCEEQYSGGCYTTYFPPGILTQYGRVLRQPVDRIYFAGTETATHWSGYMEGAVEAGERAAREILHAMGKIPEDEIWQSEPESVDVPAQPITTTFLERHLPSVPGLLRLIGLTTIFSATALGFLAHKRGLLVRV
Experimental: as §5, §6

[3] = BBB permeation by parallel artificial membrane permeability assay (PAMPA); format: in vitro ADME; conditions: for Prediction (BBB permeation): PAMPA-BBB class from Pe; for Papp: PAMPA-BBB, read-out: Experimental Pe
Excerpt: The CNS bioavailability of the lead candidates was further ascertained by PAMPA method [31].

[4] = biological target: MAO-B; parameters: method as in PMID 28577983; conditions: methoxylated chalcones previously reported ref 30; cited from earlier work
[5] = system: Vero cells; test: Cytotoxicity by MTT assay; format: cell-based, African Green Monkey; conditions: Chlorocebus sabaeus, Vero, 48 h, MTT assay, read-out: IC50 for Vero cell viability
Experimental: (§1) African Green Monkey kidney cells (VERO cells) were used to evaluate the cytotoxic effects of TM1 and TM8. Cells were incubated with different doses (1 µg/mL to 500 µg/mL) of the two compounds for 48 h, and relative cell viabilities were determined by MTT assay.
(§2) The cytotoxicities and ROS quenching abilities of the two lead compounds (TM1 and TM8) were evaluated as previously described.
(§3) Figure 4 Effect of TM1 on Vero cell viability. (a) cell viability treated with TM1; (b) dose-response curve; (c) phase contrast microscope images of Vero cells treated with different concentrations of TM1. Cells were treated with TM1 for 48 h and cell viabilities were assessed by MTT assay as described in Section 4.
(§4) Figure 5 Effect of TM8 on Vero cell viability. (a) cell viability treated with TM8; (b) dose-response curve; (c) phase contrast microscope images of Vero cells treated with different concentrations of TM8. Cells were treated with TM8 for 48 h and cell viabilities were assessed by MTT assay as described in Section 4.

[6] = Cytotoxicity by MTT assay; format: cell-based, African Green Monkey; conditions: African green monkey, Vero cells (kidney); Vero cells treated at effective concentrations; read-out: Cells remaining viable
Experimental: as §1, §2, §3, §4

[7] = biological target: T2, MAO-B; test: Reversibility of MAO-B inhibition by dialysis; format: biochemical; conditions: for MAO-B activity of dialyzed sample (AD): after dialysis; for MAO-B activity of dialyzed sample (AD) / MAO-B activity of undialyzed sample (AU): test compounds […], lazabemide 0.20 µM, pargyline 0.30 µM; for MAO-B activity of undialyzed sample (AU): preincubated 30 min
Experimental: The reversibilities of MAO-B inhibitions by TM1 and TM8 were assessed by dialysis. […] Reversibility patterns were determined by comparing the activities of dialyzed (AD) and undialyzed (AU) samples.

[8] = system: Vero cells; test: ROS assay (H2O2-induced ROS levels); format: cell-based, African Green Monkey; conditions: compound at its IC50 value, exogenous H2O2
Experimental: ROS increase vulnerability to neuronal damage by causing oxidative damage in the brain during neurodegenerative diseases.
as §2
Figure 6 Effects of TM1 (a) and TM8 (b) on H2O2-induced ROS levels. Vero cells (1 × 10^6 cells/mL) were pre-incubated with 100 μg/mL of 30% H2O2 and ROS production was evaluated immediately as described in Section 4.

Structure (SMILES)	IC50 [1] [µM]	remaining activity at 10 µM [1] [%]	IC50 [2] [µM]	SI (hMAO-B selectivity index) [2]	remaining activity at 10 µM [2] [%]	Prediction (BBB permeation) [3]	Papp [3] [×10⁻⁶ cm/s]	Times more potent than the reference drug lazabemide (MAO-B) [2] [times]	further results
CCc1ccc(/C=C/C(=O)c2ccc(SC)cc2)cc1 [TM6]	6.71 ± 0.75	49.4 ± 8.7	0.13 ± 0.005	51.6	-9.5				
CSc1ccc(C(=O)/C=C/c2ccc(O)cc2)cc1 [TM2]	7.45 ± 0.25	48.3 ± 2.4	0.021 ± 0.003	354.8	-5.7 ± 5.3	CNS+ (CNS+ (high BBB permeation predicted): Pe (10^−6 cm·s^−1) > 4.00)	13.3 ± 0.8	3.0	Times more potent than pargyline (MAO-B) [2]: 1.3 times
COc1ccc(C(=O)/C=C/c2ccccc2)cc1 [Compound C1]									Ki [4]: 0.7 ± 0.05 µM; SI for MAO-B [4]: 5.07
CSc1ccc(C(=O)/C=C/c2ccc([N+](=O)[O-])cc2)cc1 [TM7]	30 ± 3.02	66.1 ± 2.6	0.023 ± 0.001	1304 and 1304.3	6 ± 1.9	CNS+ (CNS+ (high BBB permeation predicted): Pe (10^−6 cm·s^−1) > 4.00)	15.5 ± 0.71	2.7	Times more potent than pargyline (MAO-B) [2]: almost as potent as pargyline
CSc1ccc(C(=O)/C=C/c2ccc(N(C)C)cc2)cc1 [TM5]	5.91 ± 0.87	47.9 ± 3.7	0.12 ± 0.011	49.3	1.6 ± 1.1				
CSc1ccc(C(=O)/C=C/c2ccc(F)cc2)cc1 [TM10]	13.7 ± 1.22	57.9 ± 6	0.026 ± 0.004	526.9	-0.4 ± 2.7	CNS+ (CNS+ (high BBB permeation predicted): Pe (10^−6 cm·s^−1) > 4.00)	15.2 ± 0.44	2.4	Times more potent than pargyline (MAO-B) [2]: almost as potent as pargyline
CSc1ccc(C(=O)/C=C/c2ccc(Cl)cc2)cc1 [TM8]	48.6 ± 3.44	77.4 ± 8.2	0.01 ± 0.005		4.1 ± 0.5	CNS+ (CNS+ (high BBB permeation predicted): Pe (10^−6 cm·s^−1) > 4.00)	16.3 ± 0.26	6.3	Blood-brain barrier permeability in words ([3]; PAMPA): high blood-brain barrier permeabilities; IC50 ([5]; converted from µg/mL): 402 µM; IC50 [5]: 116 µg/mL; viability at 48 h [6]: > 90%; MAO-B activity of dialyzed sample (AD) [7]: 69.3%; Reversibility of MAO-B inhibition ([7]; dialysis-based method): reversible MAO-B inhibitors; MAO-B activity of undialyzed sample (AU) [7]: 33.1%; Effect on H2O2-induced intracellular ROS levels [8]: significantly reduced reactive oxygen species (ROS) levels; also recorded: appreciably lower ROS levels; also recorded: mitigated H2O2-induced increases in ROS levels; Times more potent than pargyline (MAO-B) [2]: 2.8 times
CC(=O)[C@H]1CC[C@H]2[C@@H]3CCC4=CC(=O)CC[C@]4(C)[C@H]3CC[C@]12C [Progesterone, reference compound]						CNS+ (CNS+ (high BBB permeation predicted): Pe (10^−6 cm·s^−1) > 4.00)			
COc1ccc(/C=C/C(=O)c2ccc(SC)cc2)cc1 [TM3]	8.82 ± 0.09	44.6 ± 1.9	0.088 ± 0.011	100.2	6.9				
NCCNC(=O)c1ccc(Cl)cn1 [Lazabemide, reference compound]									MAO-B activity of dialyzed sample (AD) [7]: 74.9%; MAO-B activity of undialyzed sample (AU) [7]: 16.6%
CSc1ccc(C(=O)/C=C/c2ccc(Br)cc2)cc1 [TM9]	33.6 ± 2.56	74.7	0.088 ± 0.006	381.8	7.5 ± 2.1				
CSc1ccc(C(=O)/C=C/c2ccc(C)cc2)cc1 [TM4]	12 ± 0.99	71.6 ± 3.8	0.058 ± 0.001	206.9	14.7 ± 2.8			1.1	
CSc1ccc(C(=O)/C=C/c2ccc(C(F)(F)F)cc2)cc1 [TM11]	25.2 ± 0.14	79.5 ± 0.7	0.081 ± 0.032	311.1	7.4 ± 1.2				
CCn1cc(C(=O)O)c(=O)c2cc(F)c(N3CCNC(C)C3)c(F)c21 (stereo not shown) [Lomefloxacin, reference compound]						CNS− (CNS− (low BBB permeation predicted): Pe (10^−6 cm·s^−1) < 2.00)	1.22 ± 0.02		
COc1ccc(C(=O)/C=C/c2ccc(Cl)cc2)cc1 [Compound C8]									SI for MAO-B [4]: 3.89
